Assay results: the supplement of paper PMC10307832

How the values were obtained:
Assay in all cases: relative viability (nuclei count vs DMSO), 5 days (fraction); higher = more cells survive
Ponatinib + Phenformin = compound: Cc1ccc(C(=O)Nc2ccc(CN3CCN(C)CC3)c(C(F)(F)F)c2)cc1C#Cc1cnc2cccnn12 [Ponatinib] + N=C(N)NC(=N)NCCc1ccccc1 [Phenformin] (partner 250 µM)
Method in brief: (§1)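 Lung cancer cell lines, seeded in 1536-well plates, were treated the following day by pin tool with a single drug or with five library-drug doses (not always all listed) in √10 steps on top of a fixed anchor-drug dose. Cells were fixed and nuclei stained in one step after 5 days, and nuclei were counted. Relative viability is the nuclei count for treated wells divided by that for vehicle wells, reported as medians of duplicate plates.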

Pazopanib + Trametinib = compound: Cc1ccc(Nc2nccc(N(C)c3ccc4c(C)n(C)nc4c3)n2)cc1S(N)(=O)=O [Pazopanib] + CC(=O)Nc1cccc(-n2c(=O)n(C3CC3)c(=O)c3c(Nc4ccc(I)cc4F)n(C)c(=O)c(C)c32)c1 [Trametinib] (partner 0.02 µM)
Method in brief: as §1

Pazopanib + Pictilisib = compound: Cc1ccc(Nc2nccc(N(C)c3ccc4c(C)n(C)nc4c3)n2)cc1S(N)(=O)=O [Pazopanib] + CS(=O)(=O)N1CCN(Cc2cc3nc(-c4cccc5[nH]ncc45)nc(N4CCOCC4)c3s2)CC1 [Pictilisib] (partner 1 µM)
Method in brief: as §1

Pazopanib + Vorinostat = compound: Cc1ccc(Nc2nccc(N(C)c3ccc4c(C)n(C)nc4c3)n2)cc1S(N)(=O)=O [Pazopanib] + O=C(CCCCCCC(=O)Nc1ccccc1)NO [Vorinostat] (partner 1 µM)
Method in brief: as §1

Cell Line	relative viability (Ponatinib + Phenformin; first compound 0.002 µM)	relative viability (Ponatinib + Phenformin; first compound 0.006325 µM)	relative viability (Ponatinib + Phenformin; first compound 0.06325 µM)	relative viability (Ponatinib + Phenformin; first compound 0.2 µM)	relative viability (Pazopanib + Trametinib; first compound 0.01 µM)	relative viability (Pazopanib + Trametinib; first compound 0.03162 µM)	relative viability (Pazopanib + Trametinib; first compound 0.1 µM)	relative viability (Pazopanib + Trametinib; first compound 0.3162 µM)	relative viability (Pazopanib + Trametinib; first compound 1 µM)	relative viability (Pazopanib + Pictilisib; first compound 0.01 µM)	relative viability (Pazopanib + Pictilisib; first compound 0.03162 µM)	relative viability (Pazopanib + Pictilisib; first compound 0.1 µM)	relative viability (Pazopanib + Pictilisib; first compound 0.3162 µM)	relative viability (Pazopanib + Pictilisib; first compound 1 µM)	relative viability (Pazopanib + Vorinostat; first compound 0.01 µM)	relative viability (Pazopanib + Vorinostat; first compound 0.03162 µM)	relative viability (Pazopanib + Vorinostat; first compound 0.1 µM)	relative viability (Pazopanib + Vorinostat; first compound 0.3162 µM)	relative viability (Pazopanib + Vorinostat; first compound 1 µM)
NCI-H1437	0.293	0.334	0.322	0.302	0.525	0.531	0.454	0.575	0.509	0.343	0.449	0.441	0.499	0.626	0.833	0.778	0.82	0.762	0.75
NCI-H1650	0.454	0.521	0.389	0.37	0.725	0.682	0.734	0.629	0.695	0.54	0.696	0.529	0.611	0.661	0.654	0.615	0.605	0.59	0.704
NCI-H1651	0.301	0.373	0.299	0.265	0.833	0.831	0.814	0.808	0.862	0.456	0.542	0.494	0.611	0.684	0.536	0.588	0.621	0.534	0.637
NCI-H1666	0.564	0.538	0.564	0.585	0.925	0.893	0.899	0.884	1	0.369	0.307	0.379	0.421	0.426	1.15	1.09	0.993	1.06	0.909
NCI-H1734	0.395	0.393	0.347	0.303	0.669	0.697	0.671	0.612	0.626	0.385	0.448	0.437	0.53	0.461	0.66	0.864	0.882	0.942	0.875
NCI-H1755	0.561	0.599	0.614	0.565	0.685	0.748	0.799	0.723	0.767	0.368	0.432	0.386	0.458	0.446	0.65	0.744	0.876	0.812	0.75
NCI-H1793	0.33	0.324	0.397	0.326		0.425	0.411	0.404	0.502		0.361	0.355	0.392	0.36		0.753	0.637	0.811	1.11
NCI-H1915	0.332	0.363	0.371	0.356	0.294	0.312	0.355	0.336	0.347	0.905	0.972	0.976	0.971	0.899	0.385	0.481	0.513	0.525	0.455
NCI-H1944	0.204	0.202	0.209	0.186	0.389	0.387	0.407	0.453	0.433	0.303	0.346	0.344	0.39	0.358	0.487	0.557	0.583	0.604	0.648
NCI-H1975	0.365	0.395	0.439	0.398	0.277	0.323	0.369	0.373	0.401	0.263	0.281	0.316	0.309	0.338	0.712	0.76	0.805	0.723	0.754
NCI-H1993	0.57	0.512	0.532	0.508		0.451	0.576	0.438	0.512	0.8	0.828	0.709	0.801	0.789		0.851	0.832	0.741	0.763
NCI-H2009	0.426	0.432	0.522	0.467	0.277	0.25	0.175	0.315	0.332	0.748	0.803	0.786	0.859	0.947	0.72	0.744	0.757	0.692	0.765
NCI-H2023	0.397	0.416	0.425	0.315	0.555	0.619	0.615	0.574	0.491	0.173	0.202	0.278	0.25	0.277	0.551	0.712	0.745	0.637	0.827
NCI-H2085	0.649	0.708	0.682	0.641	0.44	0.518	0.568	0.574	0.592	0.413	0.463	0.47	0.429	0.443	0.674	0.849	0.758	0.838	0.86
NCI-H2087	0.517	0.471	0.493	0.439	0.223	0.261	0.192	0.174	0.242	0.784	0.951	0.85	0.963	1.01	0.945	0.642	0.704	0.733	0.317
NCI-H2126	0.509	0.544	0.558	0.543	0.506	0.503	0.599	0.563	0.577	0.443	0.472	0.559	0.444	0.531	0.588	0.747	0.76	0.822	0.732
NCI-H2170	0.391	0.365	0.432	0.419	0.909	0.909	0.949	0.97	0.919	0.261	0.299	0.315	0.354	0.317	0.624	0.848	0.877	0.796	0.829
